Results: patent US7321056B2, “Selective peroxisome proliferator activated receptor modulators” (Eli Lilly and Company, priority 2003, dated 2008)
Where two headings read alike, the source gives them in different places.

Assays:
PPARα [1] = target: T1, PPARα (Homo sapiens, UniProt Q07869); experiment: Competitive displacement binding assay (SPA), PPARα; settings: PPARα/RXRα
T1 construct: made in house; host or cells: baculovirus expression system
Protocol: (§1) Binding assays are performed using scintillation proximity assay (SPA) technology, PPAR receptors, and corresponding radiolabeled ligands. PPARα and PPARγ along with their heterodimeric partner, retinoid X receptor α, are each produced using a baculovirus expression system. Biotinylated oligonucleotides containing PPAR response elements (PPREs) are used to couple the corresponding receptor dimers to yttrium silicate streptavidin-coated SPA beads. PPARγ- and PPARα-specific ligands are labeled with tritium and used in the appropriate corresponding assays. The IC50 values (compound concentration which causes 50% inhibition) for each competing compound are calculated after deduction of non-specific binding (measured in the presence of 10 μM unlabeled ligand). Compounds are evaluated using an 11-point dose response curve with concentrations ranging from 0.169 nM to 10 μM. Reported values represent means from one to seven separate experiments.
T1 sequence (Q07869 whole entry, the tested form may be a part): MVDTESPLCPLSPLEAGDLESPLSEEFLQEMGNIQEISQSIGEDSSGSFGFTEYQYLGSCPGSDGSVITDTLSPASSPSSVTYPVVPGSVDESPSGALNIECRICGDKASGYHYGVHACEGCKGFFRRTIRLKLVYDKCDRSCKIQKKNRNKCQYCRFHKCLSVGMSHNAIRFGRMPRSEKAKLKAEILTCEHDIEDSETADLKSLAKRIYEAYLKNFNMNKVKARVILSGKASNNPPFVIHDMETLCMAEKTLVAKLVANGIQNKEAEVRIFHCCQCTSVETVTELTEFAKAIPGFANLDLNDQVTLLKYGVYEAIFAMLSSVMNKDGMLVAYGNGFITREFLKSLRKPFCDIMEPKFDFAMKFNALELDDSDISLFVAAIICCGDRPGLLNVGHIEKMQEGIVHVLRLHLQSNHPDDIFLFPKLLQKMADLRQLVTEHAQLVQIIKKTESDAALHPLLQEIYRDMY
T1 sequence (P19793 whole entry, further chain, the tested form may be a part): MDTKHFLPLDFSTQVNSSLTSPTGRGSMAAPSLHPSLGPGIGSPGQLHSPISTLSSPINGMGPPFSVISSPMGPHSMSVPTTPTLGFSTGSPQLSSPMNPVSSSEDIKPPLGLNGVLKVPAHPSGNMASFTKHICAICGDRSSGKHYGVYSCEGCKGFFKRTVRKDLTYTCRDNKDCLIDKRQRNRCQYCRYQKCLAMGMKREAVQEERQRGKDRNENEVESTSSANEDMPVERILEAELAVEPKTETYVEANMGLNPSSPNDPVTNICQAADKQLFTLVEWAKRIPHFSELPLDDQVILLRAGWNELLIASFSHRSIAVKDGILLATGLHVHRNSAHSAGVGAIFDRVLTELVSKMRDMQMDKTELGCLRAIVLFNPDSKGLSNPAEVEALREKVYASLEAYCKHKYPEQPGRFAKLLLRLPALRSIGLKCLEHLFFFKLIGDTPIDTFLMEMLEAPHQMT

PPARγ [2] = target: T2, PPARγ (Homo sapiens, UniProt P37231); experiment: Competitive displacement binding assay (SPA), PPARγ; settings: PPARγ/RXRα
T2 construct: made in house; host or cells: baculovirus expression system
Protocol: as §1
T2 sequence (P37231 whole entry, the tested form may be a part): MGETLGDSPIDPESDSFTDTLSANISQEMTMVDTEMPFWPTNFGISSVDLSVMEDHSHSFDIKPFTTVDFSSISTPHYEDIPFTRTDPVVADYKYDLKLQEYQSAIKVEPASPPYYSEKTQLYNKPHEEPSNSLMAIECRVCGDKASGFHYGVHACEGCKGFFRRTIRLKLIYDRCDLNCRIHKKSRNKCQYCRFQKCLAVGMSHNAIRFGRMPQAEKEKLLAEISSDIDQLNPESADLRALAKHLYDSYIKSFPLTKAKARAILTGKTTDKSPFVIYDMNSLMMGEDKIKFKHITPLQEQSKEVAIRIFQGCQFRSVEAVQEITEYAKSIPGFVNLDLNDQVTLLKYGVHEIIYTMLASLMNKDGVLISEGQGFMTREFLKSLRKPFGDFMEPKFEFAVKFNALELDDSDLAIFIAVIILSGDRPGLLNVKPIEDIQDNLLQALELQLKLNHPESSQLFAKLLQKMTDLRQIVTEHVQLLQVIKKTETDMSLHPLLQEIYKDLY
T2 sequence (P19793 whole entry, further chain, the tested form may be a part): as the sequence (P19793 whole entry, further chain, the tested form may be a part) above

PPARα [3] = target: T3, PPARα (Homo sapiens, UniProt Q07869); experiment: Cotransfection (CTF) assay, PPARα GAL4 chimeric system in CV-1 cells; type: cell-based
T3 construct: For PPARα, a GAL4 chimeric system is the standard CTF assay performed
T3 sequence (Q07869 200-468 limits assumed): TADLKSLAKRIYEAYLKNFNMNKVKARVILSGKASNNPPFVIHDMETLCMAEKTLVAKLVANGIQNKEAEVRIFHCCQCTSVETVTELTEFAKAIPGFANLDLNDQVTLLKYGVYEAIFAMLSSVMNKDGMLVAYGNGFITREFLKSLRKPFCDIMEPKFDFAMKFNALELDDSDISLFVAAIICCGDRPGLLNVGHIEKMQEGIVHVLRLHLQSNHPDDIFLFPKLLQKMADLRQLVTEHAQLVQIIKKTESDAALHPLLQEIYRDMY
From the text: (§2) PPARγ or PPARα are constitutively expressed using plasmids containing the cytomegalovirus promoter. Reporter plasmids for the PPARγ CTF assays contain PPREs from the following genes: acyl coA oxidase (AOX); apolipoprotein A1 (ApoA1); lipoprotein lipase (LPL); or enoyl-CoA hydratase/3-hydroxyacyl-CoA dehydrogenase (HD) plus the thymidine kinase (TK) promoter upstream of the luciferase reporter cDNA. A PPARγ […] galactosidase (GAL4) chimeric system is also used. For PPARα, a GAL4 chimeric system is the standard CTF assay performed. All assays are done in CV-1 cells. Compounds are tested in full log dilution, from 0.1 nM to 10 μM in duplicate. Percent efficacies are determined relative to reference molecules with the efficacy value reflecting the greatest amount of agonist activity achieved in the CTF assay for each compound. Median effective concentration (EC50) values are determined by computer fit to a concentration-response curve. An EC50 value is not calculated if the efficacy for the compound is <20%. Reported values represent means from two to nine separate experiments.

[4] = target: T4, PPARγ ligand binding domain / CREB-binding protein (CBP) (Homo sapiens, UniProt P37231); experiment: Co-factor recruitment assay (mammalian-2-hybrid, CV-1 cells), CBP; type: cell-based
T4 construct: expressed in transfected cells; host or cells: CV-1 cells
From the text: (§3) A mammalian-2-hybrid assay system in CTF format is done in CV-1 cells. The following plasmids are used: a mammalian expression vector encoding a fusion of the GAL4 DNA binding domain with the PPARγ ligand binding domain; a mammalian expression vector encoding a fusion of the VP16 transactivation domain with the nuclear receptor interaction domain of the respective co-activators: CREB-binding protein (CBP), peroxisome proliferator-activated receptor gamma coactivator-1 (PGC-1), activating signal cointegrator-2 (ASC-2), thyroid hormone receptor-activated protein complex (TRAP220), and the peptide C33; and a reporter plasmid (multimerized GAL4 binding sites/minimal TK promoter driving a luciferase cDNA). Cells are transfected in batch format and treated with compound (full log dilution from 0.1 nM to 10 μM) or vehicle for 24 hours. Subsequently, the cells are lysed and luciferase activity is measured. Luciferase activity serves as the endpoint for interaction between co-activator and receptor. The data are presented as % efficacy relative to a PPARγ full agonist and represent means from four to six separate experiments.

[5] = target: T5, PPARγ ligand binding domain / PGC-1 (Homo sapiens, UniProt P37231); experiment: Co-factor recruitment assay (mammalian-2-hybrid, CV-1 cells), PGC-1; type: cell-based
T5 construct: expressed in transfected cells; host or cells: CV-1 cells
T5 sequence (P37231 238-503 limits assumed): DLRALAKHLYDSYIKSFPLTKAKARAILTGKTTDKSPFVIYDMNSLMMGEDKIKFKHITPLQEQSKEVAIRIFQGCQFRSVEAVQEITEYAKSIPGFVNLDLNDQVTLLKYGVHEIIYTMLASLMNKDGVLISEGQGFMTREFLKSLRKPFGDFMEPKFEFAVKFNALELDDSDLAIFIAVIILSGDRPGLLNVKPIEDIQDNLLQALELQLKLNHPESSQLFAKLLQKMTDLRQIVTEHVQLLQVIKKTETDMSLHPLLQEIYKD
T5 sequence (Q9UBK2 1-798 partner): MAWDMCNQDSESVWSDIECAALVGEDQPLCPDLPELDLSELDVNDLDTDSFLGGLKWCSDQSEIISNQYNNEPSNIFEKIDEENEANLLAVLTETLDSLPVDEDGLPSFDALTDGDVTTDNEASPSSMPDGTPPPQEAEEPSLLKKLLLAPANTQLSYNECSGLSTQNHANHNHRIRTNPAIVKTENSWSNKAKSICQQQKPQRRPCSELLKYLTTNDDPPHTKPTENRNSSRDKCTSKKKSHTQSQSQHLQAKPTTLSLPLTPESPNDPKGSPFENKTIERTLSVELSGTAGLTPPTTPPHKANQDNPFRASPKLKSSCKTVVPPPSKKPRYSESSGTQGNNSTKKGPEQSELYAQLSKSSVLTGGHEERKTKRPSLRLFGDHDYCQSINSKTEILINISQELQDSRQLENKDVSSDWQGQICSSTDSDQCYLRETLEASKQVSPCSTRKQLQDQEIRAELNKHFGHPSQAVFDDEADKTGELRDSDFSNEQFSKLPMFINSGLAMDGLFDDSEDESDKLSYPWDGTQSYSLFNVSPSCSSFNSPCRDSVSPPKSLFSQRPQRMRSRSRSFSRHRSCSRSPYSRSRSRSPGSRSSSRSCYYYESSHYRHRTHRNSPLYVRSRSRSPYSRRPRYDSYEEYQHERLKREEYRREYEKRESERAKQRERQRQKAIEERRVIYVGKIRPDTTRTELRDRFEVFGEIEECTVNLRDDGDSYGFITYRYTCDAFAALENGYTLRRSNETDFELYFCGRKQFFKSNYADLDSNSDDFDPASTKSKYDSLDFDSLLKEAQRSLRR
From the text: as §3

[6] = target: T6, PPARγ ligand binding domain / TRAP220 (Homo sapiens, UniProt P37231); experiment: Co-factor recruitment assay (mammalian-2-hybrid, CV-1 cells), TRAP220; type: cell-based
T6 construct: expressed in transfected cells; host or cells: CV-1 cells
T6 sequence (Q15648 whole entry partner, species assumed, one chain of several, the tested form may be a part): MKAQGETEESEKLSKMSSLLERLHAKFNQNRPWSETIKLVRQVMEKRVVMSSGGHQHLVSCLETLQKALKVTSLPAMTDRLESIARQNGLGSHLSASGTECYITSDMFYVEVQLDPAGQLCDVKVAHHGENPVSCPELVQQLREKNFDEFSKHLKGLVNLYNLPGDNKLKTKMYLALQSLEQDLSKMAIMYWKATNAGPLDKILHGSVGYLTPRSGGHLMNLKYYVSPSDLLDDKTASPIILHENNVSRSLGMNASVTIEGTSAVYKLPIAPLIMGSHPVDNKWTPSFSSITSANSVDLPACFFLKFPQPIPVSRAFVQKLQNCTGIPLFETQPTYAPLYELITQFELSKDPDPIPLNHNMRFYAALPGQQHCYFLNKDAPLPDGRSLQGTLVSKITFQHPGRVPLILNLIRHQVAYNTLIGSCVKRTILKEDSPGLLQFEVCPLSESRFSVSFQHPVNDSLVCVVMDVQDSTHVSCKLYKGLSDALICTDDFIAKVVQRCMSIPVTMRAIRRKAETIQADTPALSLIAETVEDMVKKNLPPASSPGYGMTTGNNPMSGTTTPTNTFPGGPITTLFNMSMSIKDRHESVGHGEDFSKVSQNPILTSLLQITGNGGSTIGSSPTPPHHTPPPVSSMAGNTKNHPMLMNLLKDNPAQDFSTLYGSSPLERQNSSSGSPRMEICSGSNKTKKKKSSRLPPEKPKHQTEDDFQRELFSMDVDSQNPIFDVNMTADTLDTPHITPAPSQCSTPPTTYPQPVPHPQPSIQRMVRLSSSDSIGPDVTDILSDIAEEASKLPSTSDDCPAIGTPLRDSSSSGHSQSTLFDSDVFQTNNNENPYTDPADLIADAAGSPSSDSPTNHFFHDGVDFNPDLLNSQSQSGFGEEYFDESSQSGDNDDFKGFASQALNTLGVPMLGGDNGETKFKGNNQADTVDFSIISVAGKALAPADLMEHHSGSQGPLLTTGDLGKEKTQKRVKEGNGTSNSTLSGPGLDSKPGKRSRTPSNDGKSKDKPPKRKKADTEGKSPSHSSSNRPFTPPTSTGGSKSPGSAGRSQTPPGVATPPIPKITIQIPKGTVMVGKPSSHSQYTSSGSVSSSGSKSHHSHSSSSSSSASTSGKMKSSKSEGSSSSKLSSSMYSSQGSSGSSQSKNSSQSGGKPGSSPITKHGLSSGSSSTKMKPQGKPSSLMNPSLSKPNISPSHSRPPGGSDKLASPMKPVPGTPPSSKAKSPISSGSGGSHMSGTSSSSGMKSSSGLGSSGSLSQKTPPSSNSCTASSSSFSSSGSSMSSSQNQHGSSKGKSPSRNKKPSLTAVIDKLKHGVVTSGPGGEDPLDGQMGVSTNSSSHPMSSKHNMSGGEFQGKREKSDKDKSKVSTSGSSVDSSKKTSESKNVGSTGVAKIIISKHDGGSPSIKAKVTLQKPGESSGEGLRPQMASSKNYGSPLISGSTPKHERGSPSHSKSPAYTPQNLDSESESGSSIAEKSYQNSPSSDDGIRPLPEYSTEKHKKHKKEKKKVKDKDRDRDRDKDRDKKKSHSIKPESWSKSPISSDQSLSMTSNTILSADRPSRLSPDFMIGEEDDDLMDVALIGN
From the text: as §3

[7] = target: T7, PPARγ ligand binding domain / ASC-2 (Homo sapiens, UniProt P37231); experiment: Co-factor recruitment assay (mammalian-2-hybrid, CV-1 cells), ASC-2; type: cell-based
T7 construct: expressed in transfected cells; host or cells: CV-1 cells
T7 sequence (Q14686 whole entry partner, species assumed, one chain of several, the tested form may be a part): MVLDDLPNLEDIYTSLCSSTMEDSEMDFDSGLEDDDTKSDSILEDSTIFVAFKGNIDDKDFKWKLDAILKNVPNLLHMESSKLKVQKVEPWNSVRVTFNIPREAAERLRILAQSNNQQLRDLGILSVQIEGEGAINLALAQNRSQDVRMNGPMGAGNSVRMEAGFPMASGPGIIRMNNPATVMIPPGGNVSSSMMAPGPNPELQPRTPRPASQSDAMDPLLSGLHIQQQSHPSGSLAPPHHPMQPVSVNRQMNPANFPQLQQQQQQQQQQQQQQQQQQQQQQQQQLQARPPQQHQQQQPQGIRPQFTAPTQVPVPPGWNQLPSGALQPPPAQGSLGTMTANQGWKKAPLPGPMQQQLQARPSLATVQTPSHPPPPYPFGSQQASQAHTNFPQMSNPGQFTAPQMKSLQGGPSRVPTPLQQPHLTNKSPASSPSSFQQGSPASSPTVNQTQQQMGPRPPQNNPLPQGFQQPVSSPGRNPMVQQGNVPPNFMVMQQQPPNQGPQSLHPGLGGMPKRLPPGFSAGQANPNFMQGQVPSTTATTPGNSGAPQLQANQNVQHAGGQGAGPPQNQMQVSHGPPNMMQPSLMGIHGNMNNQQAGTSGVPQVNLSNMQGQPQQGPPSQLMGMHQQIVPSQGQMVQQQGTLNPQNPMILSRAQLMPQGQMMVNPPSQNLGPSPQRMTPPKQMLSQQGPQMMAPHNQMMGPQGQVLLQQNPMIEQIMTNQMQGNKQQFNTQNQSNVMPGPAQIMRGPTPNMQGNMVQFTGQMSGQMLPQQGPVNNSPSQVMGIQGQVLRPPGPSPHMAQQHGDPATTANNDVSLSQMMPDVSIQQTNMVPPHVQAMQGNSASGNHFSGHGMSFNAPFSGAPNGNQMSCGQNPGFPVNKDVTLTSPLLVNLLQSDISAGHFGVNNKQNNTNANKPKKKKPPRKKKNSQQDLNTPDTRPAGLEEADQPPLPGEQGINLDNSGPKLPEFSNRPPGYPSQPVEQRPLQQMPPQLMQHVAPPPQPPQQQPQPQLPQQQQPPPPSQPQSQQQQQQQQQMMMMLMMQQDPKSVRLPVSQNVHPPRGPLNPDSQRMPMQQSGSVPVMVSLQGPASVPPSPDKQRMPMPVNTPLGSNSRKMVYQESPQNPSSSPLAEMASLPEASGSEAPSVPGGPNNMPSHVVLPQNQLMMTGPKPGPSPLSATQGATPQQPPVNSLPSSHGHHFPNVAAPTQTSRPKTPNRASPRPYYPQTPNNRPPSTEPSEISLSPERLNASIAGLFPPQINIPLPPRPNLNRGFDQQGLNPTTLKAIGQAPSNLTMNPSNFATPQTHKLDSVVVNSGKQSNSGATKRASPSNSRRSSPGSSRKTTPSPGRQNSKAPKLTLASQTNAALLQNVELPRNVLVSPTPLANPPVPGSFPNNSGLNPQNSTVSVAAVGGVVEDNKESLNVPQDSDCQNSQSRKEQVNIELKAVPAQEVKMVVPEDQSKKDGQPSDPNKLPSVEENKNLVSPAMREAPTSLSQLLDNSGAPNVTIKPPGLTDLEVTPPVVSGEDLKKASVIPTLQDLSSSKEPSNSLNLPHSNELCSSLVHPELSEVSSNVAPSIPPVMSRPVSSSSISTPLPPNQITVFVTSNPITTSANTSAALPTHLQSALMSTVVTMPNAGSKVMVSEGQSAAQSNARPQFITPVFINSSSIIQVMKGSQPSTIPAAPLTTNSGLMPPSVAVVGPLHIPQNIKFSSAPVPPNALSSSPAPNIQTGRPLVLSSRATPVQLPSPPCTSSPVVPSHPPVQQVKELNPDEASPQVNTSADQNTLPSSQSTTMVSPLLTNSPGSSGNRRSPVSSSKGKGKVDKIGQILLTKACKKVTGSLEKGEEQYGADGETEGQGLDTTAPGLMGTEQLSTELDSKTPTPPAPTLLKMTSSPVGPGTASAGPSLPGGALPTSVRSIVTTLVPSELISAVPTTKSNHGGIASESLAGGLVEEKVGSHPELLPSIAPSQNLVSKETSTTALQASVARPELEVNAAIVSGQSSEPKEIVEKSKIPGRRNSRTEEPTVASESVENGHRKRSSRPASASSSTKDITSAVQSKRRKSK
From the text: as §3

[8] = target: T8, PPARγ ligand binding domain / peptide C33 (Homo sapiens, UniProt P37231); experiment: Co-factor recruitment assay (mammalian-2-hybrid, CV-1 cells), peptide C33; type: cell-based
T8 construct: expressed in transfected cells; host or cells: CV-1 cells
T8 sequence (P37231 238-503 limits assumed): T5 sequence (P37231 238-503 limits assumed)
From the text: as §3

diabetic (db/db) mice = experiment: Glucose, triglyceride, hematocrit levels and body weight gain in diabetic mice; settings: db/db mice, 7 days
Protocol: Five-week-old male diabetic (db/db) mice (Harlan Laboratories, Indianapolis, Ind.) are housed in plastic cages (n=6/cage; cage size is approximately 10×20×8″ with aspen chip bedding) with free access to water (sipper system—city tap water) and food (Purina 5008). After two weeks of acclimation, animals (7 weeks of age) are bled on day 0 at 1000-1200 h (lights on 0600 h) and assigned to treatment groups (n=5 or 6) based on starting glucose values. Compound or vehicle only treatments are administered daily by oral gavage at approximately 0730 h. Body weights are measured at the beginning (day 0) and end (day 7 or day 14) of the studies. Blood is collected in heparinized tubes from the tail of nonfasted animals two to three hours after the last dose. Hematocrit, glucose and triglycerides levels are then determined. The reported values for glucose and triglyceride levels represent the % of normalization compared to the lean littermate values set at 100% or glucose normalization calculated based on a normal glucose level of 250 mg/dl. Statistical significance between experimental groups is assessed using a two-sided student's t-test.
Plasma glucose and hematocrit levels along with body weight are measured before the study began (day 0) and at the end of the study (day 14).
Plasma glucose, triglyceride, and hematocrit levels along with body weight are measured before the study began (day 0) and at the end of the study (day 7).

PPARγ [9] = target: T9, PPARγ (Homo sapiens, UniProt P37231); experiment: Cotransfection (CTF) / response element assays, PPARγ in CV-1 cells; type: cell-based; set-up: Gla4 Eff; other: response element assay, GAL4 chimeric system; A PPARγ bacterial galactosidase (GAL4) chimeric system is also used; settings: response element assay, GAL4 chimeric system
T9 sequence (P37231 238-505 limits assumed): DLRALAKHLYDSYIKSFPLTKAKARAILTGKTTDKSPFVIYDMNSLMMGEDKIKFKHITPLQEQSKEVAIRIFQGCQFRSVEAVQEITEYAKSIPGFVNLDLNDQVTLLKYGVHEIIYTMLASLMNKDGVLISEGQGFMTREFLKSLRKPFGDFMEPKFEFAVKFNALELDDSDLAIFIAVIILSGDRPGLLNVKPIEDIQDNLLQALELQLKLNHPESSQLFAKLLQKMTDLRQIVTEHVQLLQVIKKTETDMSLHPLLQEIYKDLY
From the text: as §2

PPARγ [10] = target: T9, PPARγ; experiment: as above; type: cell-based; set-up: rows headed: PPARγ efficacy (% efficacy compared to a PPARγ full agonist set at 100%); PPARγ or PPARα are constitutively expressed using plasmids containing the cytomegalovirus promoter; settings: CV-1; range over CTF assays of Tables 1 and 3; read-out: PPARγ efficacy (% efficacy compared to a PPARγ full agonist set at 100%)
From the text: as §2

PPARγ [11] = target: T9, PPARγ; experiment: as above; type: cell-based; set-up: Eff (γ); HD Eff; other: response element assay, HD PPRE reporter; LPL Eff; other: response element assay, LPL PPRE reporter; ApoA1 Eff; other: response element assay, ApoA1; PPARγ or PPARα are constitutively expressed using plasmids containing the cytomegalovirus promoter
From the text: as §2

[12] = relative to a PPARγ full agonist

SMILES: CCOc1ccc(CCNC(=O)COc2ccc(C[C@H](OC)C(=O)O)cc2)cc1 [formula V, (S)-3-(4-{[2-(4-ethoxy-phenyl)-ethylcarbamoyl]-methoxy}-phenyl)-2-methoxy-propionic acid]
- IC50 (PPARα [1]): 360 nM
- IC50 (PPARγ [2]): 30 nM
- EC50 (PPARα [3]): 1810 nM
- Eff (α) (PPARα [3]; relative to reference molecule): 39 % efficacy
- EC50 [4]: 2640 nM
- CBP Eff [4, 12]: 18 % efficacy
- EC50 ([5]; read-out: PGC1 EC50): 2600 nM
- PGC1 Eff [5, 12]: 24 % efficacy
- EC50 [6]: 3060 nM
- TRAP220 Eff [6, 12]: 16 % efficacy
- EC50 ([7]; read-out: ASC2 EC50): 2870 nM
- ASC2 Eff [7, 12]: 33 % efficacy
- EC50 [8]: 2890 nM
- C33 Eff [8, 12]: 43 % efficacy
- plasma glucose normalization (diabetic (db/db) mice; 3 mg/kg/day oral gavage): 61.2 % normalization
- plasma triglycerides normalization (diabetic (db/db) mice; 3 mg/kg/day oral gavage): 108.1 % normalization
- plasma glucose normalization (diabetic (db/db) mice; 10 mg/kg/day oral gavage): 87.5 % normalization
- plasma triglycerides normalization (diabetic (db/db) mice; 10 mg/kg/day oral gavage): 108.1 % normalization
- plasma glucose normalization (diabetic (db/db) mice; 30 mg/kg/day oral gavage): 105.6 % normalization
- plasma triglycerides normalization (diabetic (db/db) mice; 30 mg/kg/day oral gavage): 121.1 % normalization
- plasma glucose normalization (diabetic (db/db) mice; 100 mg/kg/day oral gavage): 110.3 % normalization
- plasma triglycerides normalization (diabetic (db/db) mice; 100 mg/kg/day oral gavage): 130.6 % normalization
- Gla4 Eff (PPARγ [9]): 39 % efficacy
- EC50 (PPARγ [9]; read-out: Gla4 EC50): 1910 nM
- Emax (PPARγ [10]): 39 to 80%
- Eff (γ) (PPARγ [11]; CTF, Table 1, relative to PPARγ full agonist set at 100%): 60 % efficacy
- EC50 (PPARγ [11]; CTF, Table 1, read-out: EC50 (γ)): 1010 nM
- ApoA1 Eff (PPARγ [11]; response element assay, ApoA1 PPRE reporter): 39 % efficacy
- EC50 (PPARγ [11]; response element assay, ApoA1 PPRE reporter, read-out: ApoA1 EC50): 335 nM
- HD Eff (PPARγ [11]; response element assay, HD PPRE reporter): 58 % efficacy
- EC50 (PPARγ [11]; response element assay, HD PPRE reporter, read-out: HD EC50): 1040 nM
- LPL Eff (PPARγ [11]; response element assay, LPL PPRE reporter): 80 % efficacy
- EC50 (PPARγ [11]; response element assay, LPL PPRE reporter, read-out: LPL EC50): 466 nM
